In the supplement of paper PMC10307832:

Columns and labels:
Experiment in all cases: relative viability (nuclei count vs DMSO), 5 days (fraction); higher = more cells survive
Ruxolitinib + Navitoclax = compound: N#CC[C@H](C1CCCC1)n1cc(-c2ncnc3[nH]ccc23)cn1 [Ruxolitinib] + CC1(C)CCC(c2ccc(Cl)cc2)=C(CN2CCN(c3ccc(C(=O)NS(=O)(=O)c4ccc(N[C@H](CCN5CCOCC5)CSc5ccccc5)c(S(=O)(=O)C(F)(F)F)c4)cc3)CC2)C1 [Navitoclax] (partner 0.5 µM)
How it was run: (§1)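 For relative viability, nuclei counts in treated wells were divided by those in vehicle wells. Lung cancer cell lines had been pin-tool dosed in 1536-well plates the day after seeding and cultured for 5 days, then fixed and stained in one step (final 0.05% Triton X-100, 1% formaldehyde, 1 ug/ml Hoechst) and imaged at 4×. Doses were one drug alone or a fixed anchor-drug dose plus five library-drug doses (not always all listed) in √10 steps, and values are duplicate-plate medians.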

VE-821 + Navitoclax = compound: CS(=O)(=O)c1ccc(-c2cnc(N)c(C(=O)Nc3ccccc3)n2)cc1 [VE-821] + CC1(C)CCC(c2ccc(Cl)cc2)=C(CN2CCN(c3ccc(C(=O)NS(=O)(=O)c4ccc(N[C@H](CCN5CCOCC5)CSc5ccccc5)c(S(=O)(=O)C(F)(F)F)c4)cc3)CC2)C1 [Navitoclax] (partner 0.5 µM)
How it was run: as §1

Ruxolitinib + Alpelisib = compound: N#CC[C@H](C1CCCC1)n1cc(-c2ncnc3[nH]ccc23)cn1 [Ruxolitinib] + Cc1nc(NC(=O)N2CCC[C@H]2C(N)=O)sc1-c1ccnc(C(C)(C)C(F)(F)F)c1 [Alpelisib] (partner 2 µM)
How it was run: as §1

Ruxolitinib + Tozasertib = compound: N#CC[C@H](C1CCCC1)n1cc(-c2ncnc3[nH]ccc23)cn1 [Ruxolitinib] + Cc1cc(Nc2cc(N3CCN(C)CC3)nc(Sc3ccc(NC(=O)C4CC4)cc3)n2)n[nH]1 [Tozasertib] (partner 0.1 µM)
How it was run: as §1

| Cell Line | relative viability (Ruxolitinib + Navitoclax; first compound 0.08 µM) | relative viability (Ruxolitinib + Navitoclax; first compound 0.253 µM) | relative viability (Ruxolitinib + Navitoclax; first compound 0.8 µM) | relative viability (Ruxolitinib + Navitoclax; first compound 2.53 µM) | relative viability (Ruxolitinib + Navitoclax; first compound 8 µM) | relative viability (VE-821 + Navitoclax; first compound 0.08 µM) | relative viability (VE-821 + Navitoclax; first compound 0.253 µM) | relative viability (VE-821 + Navitoclax; first compound 0.8 µM) | relative viability (VE-821 + Navitoclax; first compound 2.53 µM) | relative viability (VE-821 + Navitoclax; first compound 8 µM) | relative viability (Ruxolitinib + Alpelisib; first compound 0.08 µM) | relative viability (Ruxolitinib + Alpelisib; first compound 0.253 µM) | relative viability (Ruxolitinib + Alpelisib; first compound 0.8 µM) | relative viability (Ruxolitinib + Alpelisib; first compound 2.53 µM) | relative viability (Ruxolitinib + Alpelisib; first compound 8 µM) | relative viability (Ruxolitinib + Tozasertib; first compound 0.08 µM) | relative viability (Ruxolitinib + Tozasertib; first compound 0.253 µM) | relative viability (Ruxolitinib + Tozasertib; first compound 0.8 µM) | relative viability (Ruxolitinib + Tozasertib; first compound 2.53 µM) | relative viability (Ruxolitinib + Tozasertib; first compound 8 µM) |
| --- | --- | --- | --- | --- | --- | --- | --- | --- | --- | --- | --- | --- | --- | --- | --- | --- | --- | --- | --- | --- |
| HCC-44 | 0.991 | 1.14 | 0.966 | 0.664 | 0.394 | 1.01 | 0.992 | 0.975 | 1.19 | 1.08 | 0.793 | 0.724 | 0.796 | 0.602 | 0.41 | 0.953 | 1.11 | 1.15 | 0.804 | 0.761 |
| HCC-78 | 0.663 | 0.528 | 0.692 | 0.604 | 0.702 | 0.831 | 0.783 | 0.707 | 1.04 | 0.654 | 0.289 | 0.249 | 0.308 | 0.277 | 0.337 | 0.512 | 0.45 | 0.414 | 0.55 | 0.5 |
| HCC-366 | 1.14 | 1.05 | 1.05 | 0.965 | 0.993 | 1.34 | 1.02 | 0.925 | 1.02 | 0.0801 | 0.349 | 0.322 | 0.366 | 0.36 | 0.46 | 0.117 | 0.113 | 0.192 | 0.0897 | 0.101 |
| HCC-827 |  | 0.863 | 0.908 | 0.857 | 0.845 | 1.05 | 1.02 | 1.07 | 1.02 | 1.01 |  | 0.679 | 0.72 | 0.794 | 0.887 |  | 0.342 | 0.35 | 0.397 | 0.386 |
| HOP-62 | 1.02 | 1.17 | 1.11 | 1 | 1.11 | 1.22 | 0.91 | 1.16 | 1.17 | 1.12 |  | 0.813 | 1.05 | 0.96 | 0.723 | 0.345 | 0.394 | 0.415 | 0.402 | 0.348 |
| LC-2-ad | 0.376 | 0.435 | 0.444 | 0.257 | 0.243 | 0.587 | 0.413 | 0.566 | 0.622 | 0.291 | 0.895 | 0.848 | 0.934 | 0.734 | 0.567 |  | 0.435 | 0.548 | 0.482 | 0.515 |
| LCLC-97TM1 | 0.459 | 0.384 | 0.537 | 0.492 | 0.354 | 0.58 | 0.546 | 0.418 | 0.494 | 0.43 | 0.215 | 0.204 | 0.275 | 0.235 | 0.327 | 0.178 | 0.316 | 0.229 | 0.305 | 0.348 |
| LK-2 |  | 0.719 | 1.11 | 0.9 | 0.708 | 0.996 | 0.965 | 0.767 | 1.06 | 0.97 |  | 0.992 | 1.27 | 0.971 | 1.43 | 0.162 | 0.199 | 0.168 | 0.166 | 0.171 |
